Test results: ChEMBL document CHEMBL6178021, “Optimization of Tambjamines Active against Multiple Stages of Malaria Parasites” (J Med Chem, 2025)
In brackets after ≈: the same amount, converted by molar mass.

Experiments:
Plasmodium falciparum [1] = experiment: Antiplasmodial activity against asexual blood-stage Plasmodium falciparum Tm90-C2B using 2% haematocrit and 0.2% parasitemia assessed as reduction in fluorescence measured after 72 hrs by Malaria SYBR Green I-based Fluorescence (MSF) assay; format: functional, organism-based
Plasmodium falciparum [2] = experiment: microbe, parasite or virus in culture; conditions: Dd2, 72 h
Description: Antiplasmodial activity against asexual blood-stage Plasmodium falciparum Dd2 using 2% haematocrit and 0.2% parasitemia assessed as reduction in fluorescence measured after 72 hrs by Malaria SYBR Green I-based Fluorescence (MSF) assay

Plasmodium falciparum [3] = experiment: microbe, parasite or virus in culture; conditions: D6, 72 h
Description: Antiplasmodial activity against asexual blood-stage Plasmodium falciparum D6 using 2% haematocrit and 0.2% parasitemia assessed as reduction in fluorescence measured after 72 hrs by Malaria SYBR Green I-based Fluorescence (MSF) assay

MDR1 (human) [4] = experiment: Apparent permeability across apical to basolateral side in MDCK transfected with human MDR1 cells incubated for 1 hr by LC-MS analysis; conditions: dog, MDCK-MDR1
HepG2 = experiment: Cytotoxicity against human HepG2 cells assessed as cell viability measured after 48 hrs by MTT assay; format: toxicity, cell-based; conditions: hepg2
Plasmodium yoelii = experiment: Antimalarial activity against erythrocytic Plasmodium yoelii MRA-428 infected in CF1 mouse assessed as reduction in parasitemia at 10 mg/kg, po once daily for 4 days measured on day 5; format: functional; set-up: scale not given: the % may be the effect or the level left; conditions: time 4 day
[5] = Solubility of the compound in potassium phosphate buffer at pH 7.4 by UV-vis spectroscopy; conditions: buffer
in vitro [6] = conditions: human, liver microsomes
[7] = Metabolic stability in human liver microsomes assessed as half life measured up to 60 mins by LC/MS analysis; format: ADME, Microsome
in vitro [8] = conditions: mouse, liver microsomes
MDR1 (human) [9] = experiment: Apparent permeability across basolateral to apical side in MDCK transfected with human MDR1 cells incubated for 1 hr by LC-MS analysis; conditions: dog, MDCK-MDR1
[10] = Metabolic stability in mouse liver microsomes assessed as half life measured up to 60 mins by LC/MS analysis; format: ADME, Microsome

Structure (SMILES) | IC50 (Plasmodium falciparum [1]) [µM] | IC50 (Plasmodium falciparum [2]) [µM] | IC50 (Plasmodium falciparum [3]) [µM] | also measured
COc1ccc(OC2=C(Oc3ccc(OC)cc3)/C(=C/NC3CCCCC3)N=C2c2ccc[nH]2)cc1 | 1.65 | 1.47 | 1.22 | –
CCC1=C(CC)/C(=C/NC2CCCCC2)N=C1c1ccccc1F | > 2.5 | > 2.5 | > 2.5 | –
CCC1=C(CC)/C(=C/NC23C[C@H]4C[C@@H](C2)C[C@@H](C3)C4)N=C1c1ccccc1OCCN(CC)CC | 1.4 | 0.774 | 2.07 | –
COc1ccc(OC2=C(Oc3ccc(OC)cc3)/C(=C/NC34C[C@H]5C[C@@H](C3)C[C@@H](C4)C5)N=C2c2ccc[nH]2)cc1 | 0.184 | 0.113 | 0.228 | –
COc1ccc(C2=C(c3ccc(OC)cc3)/C(=C/NC3CCCCC3)N=C2c2ccc[nH]2)cc1 | 0.187 | 0.343 | – | –
CCC1=C(CC)/C(=C/NC23C[C@H]4C[C@@H](C2)C[C@@H](C3)C4)N=C1c1ccccc1F | > 2.5 | > 2.5 | > 2.5 | –
C(/NC1CCCCC1)=C1/N=C(c2ccc[nH]2)C(Oc2ccccc2)=C1Oc1ccccc1 | > 2.5 | > 2.5 | > 2.5 | –
CCc1ccc(-c2[nH]c(C(=O)NC3CCCCC3)c(CC)c2CC)[nH]1 | > 2.5 | > 2.5 | > 2.5 | –
CCc1c(CNC23CC4CC(CC(C4)C2)C3)[nH]c(-c2ccc[nH]2)c1CC | 0.912 | 0.753 | – | –
C(/NC1CCCCC1)=C1/N=C(c2ccc[nH]2)C(c2ccccc2)=C1c1ccccc1 | 1.7 | 1.28 | 1.52 | –
CCC1=C(CC)/C(=C/NC2CCCCC2)N=C1c1ccc(-c2ccccc2)[nH]1 | 0.0138 | 0.0275 | 0.0248 | Papp A→B at 1 h (MDR1 (human) [4]): 0.012 ×10⁻⁶ cm/s; IC50 (HepG2): 4.73 µM; Activity (Plasmodium yoelii): 0%; solubility [5]: < 3.125 µM; microsomal CLint at 1 h (in vitro [6]): 15.9 µL/min/mg; half-life [7]: > 60 min; microsomal CLint at 1 h (in vitro [8]): 17.6 µL/min/mg; Papp B→A at 1 h (MDR1 (human) [9]): 0.003 ×10⁻⁶ cm/s; half-life [10]: > 60 min
CCC1=C(CC)/C(=C/NC2CCCCC2)N=C1c1cc2ccccc2[nH]1 | > 2.5 | > 2.5 | > 2.5 | –
CCC1=C(CC)/C(=C/NC2CCCCCC2)N=C1c1ccc(-c2ccc(OC)cc2)[nH]1 | 0.0166 | 0.0254 | 0.0194 | Papp A→B at 1 h (MDR1 (human) [4]): 0.045 ×10⁻⁶ cm/s; IC50 (HepG2): 3.4 µM; Activity (Plasmodium yoelii): 4.62%; solubility [5]: 45.7 µM (≈ 19.1 µg/mL); microsomal CLint at 1 h (in vitro [6]): 164 µL/min/mg; half-life [7]: 8.44 min; microsomal CLint at 1 h (in vitro [8]): 96.1 µL/min/mg; Papp B→A at 1 h (MDR1 (human) [9]): 0.013 ×10⁻⁶ cm/s; half-life [10]: 14.5 min
CCC1=C(CC)/C(=C/NC2CCCCC2)N=C1c1ccn[nH]1 | > 2.5 | > 2.5 | > 2.5 | –
CCC1=C(CC)/C(=C/NC23C[C@H]4C[C@@H](C2)C[C@@H](C3)C4)N=C1c1ccn[nH]1 | > 2.5 | > 2.5 | > 2.5 | –
CCC1=C(CC)/C(=C/NC23C[C@H]4C[C@@H](C2)C[C@@H](C3)C4)N=C1c1ccccc1OCCN(C)C | 1.73 | 2.44 | > 2.5 | –
CCC1=C(CC)/C(=C/NC23C[C@H]4C[C@@H](C2)C[C@@H](C3)C4)N=C1c1ccccc1OC | > 2.5 | > 2.5 | > 2.5 | –
CCC1=C(CC)/C(=C/NC2CCCCCC2)N=C1c1ccc(-c2ccccc2)[nH]1 | 0.0198 | 0.0302 | – | IC50 (HepG2): 5.64 µM; Activity (Plasmodium yoelii): 10.5%; solubility [5]: 13.1 µM (≈ 5.08 µg/mL); microsomal CLint at 1 h (in vitro [6]): 61.5 µL/min/mg; half-life [7]: 22.5 min; microsomal CLint at 1 h (in vitro [8]): 115 µL/min/mg; Papp B→A at 1 h (MDR1 (human) [9]): 0.002 ×10⁻⁶ cm/s; half-life [10]: 12.1 min
CCc1c(C(=O)NC2CCCCC2)[nH]c(-c2ccc(C)[nH]2)c1CC | > 2.5 | > 2.5 | > 2.5 | –
CCC1=C(CC)/C(=C/NC2CCCCC2)N=C1c1ccccc1OCCN(CC)CC | 1.06 | 0.757 | > 2.5 | –
CCC1=C(CC)/C(=C/NC23C[C@H]4C[C@@H](C2)C[C@@H](C3)C4)N=C1c1ccc(C#N)[nH]1 | 0.818 | > 2.5 | 0.397 | –
CCC1=C(CC)/C(=C/NC2CCCCCC2)N=C1c1ccc(C#N)[nH]1 | > 2.5 | > 2.5 | > 2.5 | –
